These results are taken from patent publication US10479766B2, “Deuterated CFTR potentiators” (Vertex Pharmaceuticals (Europe) Limited, priority 2011, dated 2019).

Data set [1] can be described thus: Pharmacokinetics in rats after oral gavage. Format: in vivo. The following applies: rat, PO 10 mg/kg in 100% PEG400, plasma; for half-life: plasma, po, 10 mg/kg. On the procedure: Ivacaftor, compound 105 and compound 106 were discrete dosed to rats via oral gavage (PO). Each compound was administered at a dose of 10 mg/kg to three rats (N=3 rats/compound; total of 9 rats in the study). […] Blood samples were centrifuged to obtain plasma. Plasma samples were analyzed for concentrations of the dosed compound at each time point using LC-MS/MS. The limit of quantitation of each compound was 1 ng/mL.

The test system of data set [2] is patients with cystic fibrosis carrying at least one copy of the G551D-CFTR mutation. The following applies: phase III trials; cited from earlier work.
Where [3] appears, read: individual animals, read-out: t1/2 (hr), individual animal (converted).
The mark [4] stands for this setting: mean of N=3 rats, read-out: t1/2 (hr), Mean (converted).

Where “and” joins values, the source holds several entries; their conditions need not be identical. Equal entries are not always repeated. Where two headings read alike, the source gives them in different places.

Take `[2H]C([2H])([2H])C(c1cc(C(C([2H])([2H])[2H])(C([2H])([2H])[2H])C([2H])([2H])[2H])c(NC(=O)c2c[nH]c3ccccc3c2=O)cc1O)(C([2H])([2H])[2H])C([2H])([2H])[2H]` [Compound 105, N-(2,4-Di-(tert-butyl-d9)-5-hydroxyphenyl)-4-oxo-1,4-dihydroquinoline-3-carboxamide]: in data set [1] (individual animals), the “t1/2 (hr), individual animal” value is 16.33 h and 14.39 h. Moreover, the half-life was 13.8 h in data set [1] (setting [3]) and 14.8 h in data set [1] (setting [4]).

Consider `[2H]C([2H])([2H])C(c1cc(C(C)(C)C)c(NC(=O)c2c[nH]c3ccccc3c2=O)cc1O)(C([2H])([2H])[2H])C([2H])([2H])[2H]` [Compound 106, N-(2-(tert-Butyl)-4-(tert-butyl-d9)-5-hydroxyphenyl)-4-oxo-1,4-dihydroquinoline-3-carboxamide], for which the “t1/2 (hr), individual animal” value in data set [1] (individual animals) was 14.28 h and 11.92 h. For the same compound, the half-life was 13.5 h in data set [1] (setting [3]) and 13.2 h in data set [1] (setting [4]).

Take `CC(C)(C)c1cc(C(C)(C)C)c(NC(=O)c2c[nH]c3ccccc3c2=O)cc1O` [Ivacaftor, N-(2,4-di-tert-butyl-5-hydroxyphenyl)-4-oxo-1,4-dihydroquinoline-3-carboxamide, reference compound]: in data set [1] (individual animals), the “t1/2 (hr), individual animal” value was 12.43 h and 10.01 h. Also, the half-life was 9.03 h in data set [1] (setting [3]) and 10.5 h in data set [1] (setting [4]). In addition, the “lung function and other key indicators of the disease (sweat chloride levels, likelihood of pulmonary exacerbations, body weight)” value in data set [2] is given as “marked levels of improvement”.
